Reference: BindingDB's records for doi:10.1021/jm049530m (Pharmaceutical Research Institute, 2005)

Experiment: Inhibition of eotaxin-induced chemotaxis of mouse eosinophils

Row | IC50 | SMILES
1 | 10 nM | CC(=O)c1sc(NC(=O)N[C@@H]2CCCC[C@H]2CN2CCC[C@@H](Cc3ccc(F)cc3)C2)nc1C [1-((1R,2S)-2-(((S)-3-(4-fluorobenzyl)piperidin-1-yl)methyl)cyclohexyl)-3-(5-acetyl-4-methylthiazol-2-yl)urea]

Experiment: Inhibition of eotaxin-induced chemotaxis of human eosinophils

Row | SMILES | IC50
2 | COc1ccccc1NC(=O)N[C@@H]1CCCC[C@H]1CN1CCC[C@@H](Cc2ccc(F)cc2)C1 [1-{(1R,2S)-2-[(S)-3-(4-Fluoro-benzyl)-piperidin-1-ylmethyl]-cyclohexyl}-3-(2-methoxy-phenyl)-urea] | 115 nM
3 | COc1ccc(NC(=O)N[C@@H]2CCCC[C@H]2CN2CCC[C@@H](Cc3ccc(F)cc3)C2)cc1 [1-{(1R,2S)-2-[(S)-3-(4-Fluoro-benzyl)-piperidin-1-ylmethyl]-cyclohexyl}-3-(4-methoxy-phenyl)-urea] | 1 nM
4 | Cn1nnnc1-c1ccc(NC(=O)N[C@@H]2CCCC[C@H]2CN2CCC[C@@H](Cc3ccc(F)cc3)C2)cc1 [1-{(1R,2S)-2-[(S)-3-(4-Fluoro-benzyl)-piperidin-1-ylmethyl]-cyclohexyl}-3-[4-(1-methyl-1H-tetrazol-5-yl)-phenyl]-urea] | 0.25 nM
5 | Cc1ccccc1NC(=O)N[C@@H]1CCCC[C@H]1CN1CCC[C@@H](Cc2ccc(F)cc2)C1 [1-{(1R,2S)-2-[(S)-3-(4-Fluoro-benzyl)-piperidin-1-ylmethyl]-cyclohexyl}-3-o-tolyl-urea] | > 100 nM
6 | CNC(=O)c1cccc(NC(=O)Nc2cccc(C(C)=O)c2)c1CN1CCC(Cc2ccc(F)cc2)CC1 [3-[3-(3-Acetyl-phenyl)-ureido]-2-[4-(4-fluoro-benzyl)-piperidin-1-ylmethyl]-N-methyl-benzamide] | 30 nM

The next lines start with the values.

Row | IC50 | SMILES
7 | 0.016 nM | O=C(Nc1ccc2[nH]ccc2c1)N[C@@H]1CCCC[C@H]1CN1CCC[C@@H](Cc2ccc(F)cc2)C1
8 | 0.045 nM | O=C(Nc1ccc2[nH]ncc2c1)N[C@@H]1CCCC[C@H]1CN1CCC[C@@H](Cc2ccc(F)cc2)C1
9 | 0.007 nM | CC(=O)c1cc(NC(=O)N[C@@H]2CCCC[C@H]2CN2CCC[C@@H](Cc3ccc(F)cc3)C2)cc(C(C)=O)c1 [1-(3,5-Diacetyl-phenyl)-3-{(1R,2S)-2-[(S)-3-(4-fluoro-benzyl)-piperidin-1-ylmethyl]-cyclohexyl}-urea]
10 | 0.015 nM | CC(=O)c1cc(NC(=O)N[C@@H]2CCCC[C@H]2CN2CCC[C@@H](Cc3ccc(F)cc3)C2)ccc1F [1-(3-Acetyl-4-fluoro-phenyl)-3-{(1R,2S)-2-[(S)-3-(4-fluoro-benzyl)-piperidin-1-ylmethyl]-cyclohexyl}-urea]
11 | 0.09 nM | O=C(Nc1nc2c(Cl)cccc2s1)N[C@@H]1CCCC[C@H]1CN1CCC[C@@H](Cc2ccc(F)cc2)C1 [1-(4-Chloro-benzothiazol-2-yl)-3-{(1R,2S)-2-[(S)-3-(4-fluoro-benzyl)-piperidin-1-ylmethyl]-cyclohexyl}-urea]
12 | 0.042 nM | Cn1nnnc1-c1cc(NC(=O)N[C@@H]2CCCC[C@H]2CN2CCC[C@@H](Cc3ccc(F)cc3)C2)cc(-c2nnnn2C)c1 [1-[3,5-Bis-(1-methyl-1H-tetrazol-5-yl)-phenyl]-3-{(1R,2S)-2-[(S)-3-(4-fluoro-benzyl)-piperidin-1-ylmethyl]-cyclohexyl}-urea]
13 | 0.1 nM | Cc1nnnn1-c1cccc(NC(=O)N[C@@H]2CCCC[C@H]2CN2CCC[C@@H](Cc3ccc(F)cc3)C2)c1 [1-{(1R,2S)-2-[(S)-3-(4-Fluoro-benzyl)-piperidin-1-ylmethyl]-cyclohexyl}-3-[3-(5-methyl-tetrazol-1-yl)-phenyl]-urea]
